Laboratory results reported in ChEMBL document CHEMBL1201862, “PubChem BioAssay data set” (2004).
Calls of active or inactive are those of the source. For most assays here, no stated cut-off is given here; in the data, actives have a measured IC50 and inactives only a lower limit.

How the values were obtained:
[1] = biological target: T1, DNA repair and recombination protein RAD54-like (Homo sapiens, UniProt Q92698); assay: RAD54 Holliday junction migration blockers – biochemical, fluorescence, cherry-picked samples, dose series, confirmation (AID 651657); format: functional
T1 sequence (Q92698 whole entry): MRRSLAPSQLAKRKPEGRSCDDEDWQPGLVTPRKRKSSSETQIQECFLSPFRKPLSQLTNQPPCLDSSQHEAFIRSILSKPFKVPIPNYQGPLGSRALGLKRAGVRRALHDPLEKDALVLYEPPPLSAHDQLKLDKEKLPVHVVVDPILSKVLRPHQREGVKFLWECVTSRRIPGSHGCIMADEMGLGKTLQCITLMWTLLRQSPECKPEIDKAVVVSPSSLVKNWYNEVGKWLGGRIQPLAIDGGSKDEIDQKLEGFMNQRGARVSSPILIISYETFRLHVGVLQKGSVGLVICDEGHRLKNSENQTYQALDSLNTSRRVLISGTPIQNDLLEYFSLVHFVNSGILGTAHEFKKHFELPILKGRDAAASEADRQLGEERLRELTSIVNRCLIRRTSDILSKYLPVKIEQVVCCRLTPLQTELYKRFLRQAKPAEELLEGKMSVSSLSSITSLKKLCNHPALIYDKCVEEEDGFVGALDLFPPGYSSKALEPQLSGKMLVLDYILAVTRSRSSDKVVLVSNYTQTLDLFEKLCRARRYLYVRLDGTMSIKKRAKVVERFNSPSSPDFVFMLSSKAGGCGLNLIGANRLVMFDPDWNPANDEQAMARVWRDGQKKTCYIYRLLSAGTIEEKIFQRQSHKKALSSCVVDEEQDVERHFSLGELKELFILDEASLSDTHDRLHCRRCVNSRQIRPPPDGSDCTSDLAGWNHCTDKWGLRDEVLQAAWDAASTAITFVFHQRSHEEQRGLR

[2] = biological target: T2, Sentrin-specific protease 6 (Homo sapiens, UniProt Q9GZR1); format: functional;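 further: Luminescence-based dose-response confirmatory assay of SENP6 inhibition, following up an ultra-high-throughput screen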
T2 sequence (Q9GZR1 whole entry): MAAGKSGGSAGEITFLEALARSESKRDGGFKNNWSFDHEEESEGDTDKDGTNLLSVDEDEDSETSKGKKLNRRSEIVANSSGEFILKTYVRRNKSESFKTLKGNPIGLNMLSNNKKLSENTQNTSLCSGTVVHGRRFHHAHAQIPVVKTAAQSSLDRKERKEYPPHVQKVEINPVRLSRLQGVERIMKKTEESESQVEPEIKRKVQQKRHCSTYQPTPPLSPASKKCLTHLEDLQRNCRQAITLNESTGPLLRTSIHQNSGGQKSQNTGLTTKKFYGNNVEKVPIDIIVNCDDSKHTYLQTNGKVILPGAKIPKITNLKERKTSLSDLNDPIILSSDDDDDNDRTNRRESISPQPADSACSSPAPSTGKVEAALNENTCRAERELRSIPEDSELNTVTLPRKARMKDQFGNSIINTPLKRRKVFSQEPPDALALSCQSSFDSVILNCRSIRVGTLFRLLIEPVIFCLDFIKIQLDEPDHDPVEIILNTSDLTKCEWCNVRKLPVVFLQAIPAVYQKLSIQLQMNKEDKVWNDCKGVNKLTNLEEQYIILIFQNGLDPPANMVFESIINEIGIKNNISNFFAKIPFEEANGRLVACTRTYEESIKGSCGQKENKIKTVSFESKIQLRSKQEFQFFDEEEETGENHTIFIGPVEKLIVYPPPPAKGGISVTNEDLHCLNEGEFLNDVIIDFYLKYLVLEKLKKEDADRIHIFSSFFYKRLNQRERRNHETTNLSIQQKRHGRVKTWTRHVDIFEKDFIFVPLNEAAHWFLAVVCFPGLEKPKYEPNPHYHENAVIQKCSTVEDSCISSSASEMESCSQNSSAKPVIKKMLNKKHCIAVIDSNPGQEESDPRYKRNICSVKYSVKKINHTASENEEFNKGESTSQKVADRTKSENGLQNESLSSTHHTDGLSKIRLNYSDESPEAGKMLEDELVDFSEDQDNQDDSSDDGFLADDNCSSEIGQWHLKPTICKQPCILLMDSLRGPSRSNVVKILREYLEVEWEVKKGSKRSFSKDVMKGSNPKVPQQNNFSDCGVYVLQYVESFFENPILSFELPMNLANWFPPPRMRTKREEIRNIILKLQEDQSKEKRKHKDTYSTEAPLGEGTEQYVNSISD

[3] = biological target: T3, Sentrin-specific protease 7 (Homo sapiens, UniProt Q9BQF6); format: functional;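 further: Luminescence-based dose-response confirmation of ultra-high-throughput screening hits, measuring inhibition of SENP7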
T3 sequence (Q9BQF6 whole entry): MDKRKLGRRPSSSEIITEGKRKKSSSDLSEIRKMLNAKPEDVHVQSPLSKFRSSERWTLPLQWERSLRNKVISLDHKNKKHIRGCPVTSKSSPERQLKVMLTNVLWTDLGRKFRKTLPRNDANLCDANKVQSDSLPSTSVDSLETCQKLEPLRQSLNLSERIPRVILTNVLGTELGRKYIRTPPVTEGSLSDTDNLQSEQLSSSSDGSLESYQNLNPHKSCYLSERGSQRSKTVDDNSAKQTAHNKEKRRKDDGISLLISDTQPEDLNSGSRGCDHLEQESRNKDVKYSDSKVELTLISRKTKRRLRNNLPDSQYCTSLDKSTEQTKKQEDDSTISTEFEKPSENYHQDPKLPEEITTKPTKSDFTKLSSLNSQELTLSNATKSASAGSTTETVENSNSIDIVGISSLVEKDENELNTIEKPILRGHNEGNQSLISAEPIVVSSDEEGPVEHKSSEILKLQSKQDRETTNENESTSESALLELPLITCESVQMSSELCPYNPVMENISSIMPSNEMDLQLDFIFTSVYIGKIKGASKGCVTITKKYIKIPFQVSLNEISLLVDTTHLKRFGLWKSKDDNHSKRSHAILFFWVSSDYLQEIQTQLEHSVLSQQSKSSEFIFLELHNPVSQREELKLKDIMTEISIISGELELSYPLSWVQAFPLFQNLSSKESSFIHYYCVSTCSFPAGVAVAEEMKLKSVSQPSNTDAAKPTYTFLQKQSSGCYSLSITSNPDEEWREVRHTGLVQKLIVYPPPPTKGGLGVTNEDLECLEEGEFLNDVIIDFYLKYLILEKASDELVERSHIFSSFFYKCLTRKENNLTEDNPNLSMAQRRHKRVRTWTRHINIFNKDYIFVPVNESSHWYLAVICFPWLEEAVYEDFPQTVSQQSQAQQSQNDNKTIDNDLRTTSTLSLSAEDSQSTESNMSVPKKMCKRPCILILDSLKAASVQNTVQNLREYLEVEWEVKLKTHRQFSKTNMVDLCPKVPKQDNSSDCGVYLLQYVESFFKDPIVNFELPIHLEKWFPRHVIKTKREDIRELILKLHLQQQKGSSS

[4] = biological target: T4, Sentrin-specific protease 8 (Homo sapiens, UniProt Q96LD8); format: functional;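 further: luminescence read-out of SENP8 inhibition, dose-response confirmation following an ultra-high-throughput screen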
T4 sequence (Q96LD8 whole entry): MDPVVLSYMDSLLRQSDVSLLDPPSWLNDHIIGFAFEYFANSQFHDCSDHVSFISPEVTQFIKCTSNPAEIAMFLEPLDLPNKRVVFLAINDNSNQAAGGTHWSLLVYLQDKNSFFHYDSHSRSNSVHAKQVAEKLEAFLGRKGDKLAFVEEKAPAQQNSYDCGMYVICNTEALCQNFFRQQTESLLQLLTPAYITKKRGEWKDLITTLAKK

[5] = biological target: T5, Caspase-3 (Homo sapiens, UniProt P42574); format: functional;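 further: Dose-response selectivity test against caspase-3 for candidate inhibitors of sentrin-specific proteases (SENPs)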
T5 sequence (P42574 whole entry): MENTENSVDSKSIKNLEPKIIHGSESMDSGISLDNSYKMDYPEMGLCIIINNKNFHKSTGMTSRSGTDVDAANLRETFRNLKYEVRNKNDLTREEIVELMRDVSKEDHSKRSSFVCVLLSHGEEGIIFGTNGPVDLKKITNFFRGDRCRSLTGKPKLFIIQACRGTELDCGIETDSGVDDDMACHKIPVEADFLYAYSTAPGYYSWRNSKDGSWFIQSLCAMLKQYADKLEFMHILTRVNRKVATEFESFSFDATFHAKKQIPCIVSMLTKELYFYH

[6] = biological target: Cytochrome P450 2D6 (Homo sapiens, UniProt P10635);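 further: CYP2D6 member of a cytochrome P450 panel assay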
Cytochrome P450 2D6, sequence (P10635 whole entry): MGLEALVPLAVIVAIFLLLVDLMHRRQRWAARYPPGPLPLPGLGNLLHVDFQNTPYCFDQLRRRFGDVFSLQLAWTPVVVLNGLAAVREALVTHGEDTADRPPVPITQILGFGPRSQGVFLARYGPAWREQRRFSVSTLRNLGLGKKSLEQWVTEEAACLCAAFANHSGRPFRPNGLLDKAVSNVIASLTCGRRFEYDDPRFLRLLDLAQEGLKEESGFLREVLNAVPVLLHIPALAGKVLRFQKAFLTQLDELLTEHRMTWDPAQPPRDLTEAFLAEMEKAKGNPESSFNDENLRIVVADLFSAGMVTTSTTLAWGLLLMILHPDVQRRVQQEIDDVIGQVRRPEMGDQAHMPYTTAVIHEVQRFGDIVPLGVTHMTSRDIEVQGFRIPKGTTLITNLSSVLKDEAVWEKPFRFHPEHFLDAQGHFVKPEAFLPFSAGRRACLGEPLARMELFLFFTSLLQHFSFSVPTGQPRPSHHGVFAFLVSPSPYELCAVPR

[7] = biological target: T6, Heat shock factor protein 1 (Mus musculus, UniProt P38532); assay: enhancement of HSF1-driven luciferase signal – cell-based, NIH3T3, luminescence, dose retest, confirmation (AID 435004); format: functional;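 further: stress induced by proteasome inhibitor MG132 added 30 min after compound; luciferase reporter driven by HSF1 response element in NIH3T3 cells; actives raise luminescence as potentiators of the MG132 stress response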
T6 sequence (P38532 whole entry): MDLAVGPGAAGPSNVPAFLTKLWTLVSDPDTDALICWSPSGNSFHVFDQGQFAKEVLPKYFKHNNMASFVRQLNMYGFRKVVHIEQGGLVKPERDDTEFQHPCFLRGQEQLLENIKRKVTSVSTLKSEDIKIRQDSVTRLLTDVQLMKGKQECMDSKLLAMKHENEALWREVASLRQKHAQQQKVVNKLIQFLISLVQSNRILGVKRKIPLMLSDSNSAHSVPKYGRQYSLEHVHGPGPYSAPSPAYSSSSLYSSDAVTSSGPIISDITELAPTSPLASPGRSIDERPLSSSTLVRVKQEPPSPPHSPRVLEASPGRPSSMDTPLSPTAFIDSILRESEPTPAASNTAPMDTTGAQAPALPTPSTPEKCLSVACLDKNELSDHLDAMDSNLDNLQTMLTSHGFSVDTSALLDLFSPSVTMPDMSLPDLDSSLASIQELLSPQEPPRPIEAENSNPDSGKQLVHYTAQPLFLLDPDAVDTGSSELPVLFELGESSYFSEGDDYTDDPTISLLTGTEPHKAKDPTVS

Row | Compound | AC50 [1] | IC50 [2] | IC50 [3] | IC50 [4] | IC50 [5] | AC50 [6] | EC50 [7]
1 | CN1CCN(c2nc(-c3cccs3)nc3ccccc23)CC1 | 8.93 µM (active) | – | – | – | – | – | –
2 | CCOc1ccccc1NC(=O)Nc1ccc2c(c1)CCC2 | – | 9.82 µM (active) | 5.64 µM (active) | 9.29 µM (active) | 30.8 µM (active) | – | –
3 | COc1ccc(/C(C)=N/OCC(=O)Nc2nc3ccccc3s2)cc1OC | – | 36.1 µM (active) | 9.91 µM (active) | 62.2 µM (active) | 49.3 µM (active) | – | –
4 | O=C(Nc1cccc(Cl)c1)c1cc(S(=O)(=O)N2CCOCC2)cs1 | 30.1 µM (active) | – | – | – | – | – | –
5 | CSc1ccccc1NC(=O)c1cc(C2CC2)on1 | – | 30.7 µM (active) | 10.1 µM (active) | 33.3 µM (active) | 18.6 µM (active) | – | –
6 | CCOC(=O)Nc1ccc(C(=O)Oc2ccccc2)c(O)c1 | – | 47.6 µM (active) | 11.6 µM (active) | 79.9 µM (active) | 61.3 µM (active) | 25.1 µM (inconclusive) | 49.2 µM (active)
